Experimental data published in patent publication US9066880B2, “Use of dihydrodehydrodiisoeugenol and preparations comprising dihydrodehydrodiisoeugenol” (SYMRISE AG, priority 2010, dated 2015).

Tests used:
[1] = test system: 3T3-L1-cells (mouse embryonic fibroblast-like preadipocytes cell line); test: Quantification of intracellular lipids (stimulation of adipogenesis), Nile Red; assay type: cell-based; set-up: Stimulation of adipogenesis: unit not given here; details: for Stimulation of adipogenesis: applied day −2 to day 2, Nile Red at day 10, vs hormone mix only
Description: (§1) 3T3-L1-cells (mouse embryonic fibroblast-like preadipocytes cell line) were propagated in Dulbecco's Modified Eagle Medium (DMEM), enriched with 10% newborn calf serum (CS) at 37° C. and 5% CO2 and seeded in 48-well plates for lipid quantification. After reaching confluence at day −2 the differentiation was induced by changing medium at day 0 to DMEM with 10% fetal calf serum (FCS) containing a hormone mix (HM) of 1 μg/ml insulin, 0.25 μM dexamethasone (Dex) and 0.5 mM 3-isobutyl-1-methylxanthine (IBMX).
Compounds of interest such as compound of formula (I) are applied from day −2 (confluence of the cells) until day 2 using various concentrations. Medium is renewed every other day. At day 2, medium consisting of DMEM, 10% FCS and 1 μg/ml insulin is added. From day 4 on, only DMEM containing 10% FCS is used for further cultivation of cells. At day 10, quantification of the intracellular lipid droplets is performed by addition of the fluorescent dye Nile Red (9-diethylamino-5H-benzo[alpha]phenoxazine-5-one) for 20 minutes at 37° C. and 5% CO2. Fluorescence (RFU) is detected with excitation at 485 nm and emission at 535 nm.
Stimulation of the adipogenesis in the presence of the compounds of interest is calculated according to the following equation:
[formula] wherein • RFU test substance=Relative Fluorescence Units of the wells with test substance and with cells • RFU control=Relative Fluorescence Units of the wells stimulated with hormone mix only. • RFU without cells=Relative Fluorescence Units of the wells containing Nile Red only, without cells.

[2] = test system: peroxisome proliferator-activated receptor γ2 (PPARγ2); test: Real Time-PCR, expression of differentiation marker PPARγ2 in 3T3-L1-cells; assay type: cell-based, mouse; details: fold induction compared to hormone mix stimulation (set equal to one)
Description: as §1, with “12-well” for “48-well”, “gene expression analysis.” for “lipid quantification.”, “−2,” for “−2”, “(IBMX). Compounds of interest such as compound of formula (I) are applied from day −2 (confluence of the cells) until day 2 using various concentrations. Medium is renewed every other day. At day 2, medium consisting of DMEM, 10% FCS and 1 μg/ml insulin is added. From day 4 on, only DMEM containing 10% FCS is used for further cultivation of cells. […]” for “(IBMX).”
(§2) Total RNA from cell culture samples was isolated using RNeasy Total RNA Kits (Qiagen, Hilden; Germany). The RNA concentration and purity was determined photometrically using 260/280 ratios (Biophotometer, Eppendorf, Hamburg, Germany). […] At least three independent experiments were performed with 2 determinations each and the mean value of these was calculated. […] Each sample was analyzed in duplicate employing the universal protocol over 46 cycles. […]

adiponectin = test: Real Time-PCR, expression of differentiation marker adiponectin in 3T3-L1-cells; assay type: cell-based, mouse; details: fold induction compared to hormone mix stimulation (set equal to one)
Description: as §1, with “12-well” for “48-well”, “gene expression analysis.” for “lipid quantification.”, “−2,” for “−2”, “(IBMX). Compounds of interest such as compound of formula (I) are applied from day −2 (confluence of the cells) until day 2 using various concentrations. Medium is renewed every other day. At day 2, medium consisting of DMEM, 10% FCS and 1 μg/ml insulin is added. From day 4 on, only DMEM containing 10% FCS is used for further cultivation of cells. […]” for “(IBMX).”
as §2

[3] = test system: CCAAT enhancer binding protein α (C/EBPα); test: Real Time-PCR, expression of differentiation marker C/EBPα in 3T3-L1-cells; assay type: cell-based, mouse; details: fold induction compared to hormone mix stimulation (set equal to one)
Description: as §1, with “12-well” for “48-well”, “gene expression analysis.” for “lipid quantification.”, “−2,” for “−2”, “(IBMX). Compounds of interest such as compound of formula (I) are applied from day −2 (confluence of the cells) until day 2 using various concentrations. Medium is renewed every other day. At day 2, medium consisting of DMEM, 10% FCS and 1 μg/ml insulin is added. From day 4 on, only DMEM containing 10% FCS is used for further cultivation of cells. […]” for “(IBMX).”
as §2

[4] = test system: fatty acid binding protein 4 (FABP4); test: Real Time-PCR, expression of differentiation marker FABP4 in 3T3-L1-cells; assay type: cell-based, mouse; details: fold induction compared to hormone mix stimulation (set equal to one)
Description: as §1, with “12-well” for “48-well”, “gene expression analysis.” for “lipid quantification.”, “−2,” for “−2”, “(IBMX). Compounds of interest such as compound of formula (I) are applied from day −2 (confluence of the cells) until day 2 using various concentrations. Medium is renewed every other day. At day 2, medium consisting of DMEM, 10% FCS and 1 μg/ml insulin is added. From day 4 on, only DMEM containing 10% FCS is used for further cultivation of cells. […]” for “(IBMX).”
as §2

[5] = test system: Preadipocyte factor 1 (Pref1); test: Real Time-PCR, expression of preadipocytes marker Pref-1 in 3T3-L1-cells; assay type: cell-based, mouse; details: relative to hormone mix stimulation (set equal to one)
Description: as §1, with “12-well” for “48-well”, “gene expression analysis.” for “lipid quantification.”, “−2,” for “−2”, “(IBMX). Compounds of interest such as compound of formula (I) are applied from day −2 (confluence of the cells) until day 2 using various concentrations. Medium is renewed every other day. At day 2, medium consisting of DMEM, 10% FCS and 1 μg/ml insulin is added. From day 4 on, only DMEM containing 10% FCS is used for further cultivation of cells. […]” for “(IBMX).”
as §2

[6] = test system: 3T3-L1-cells (mouse embryonic fibroblast-like preadipocytes cell line); test: Lipolysis assay (in vitro), free glycerol in supernatant; assay type: cell-based; details: for Relative lipolysis compared to basal lipolysis: added at day 10 for 20 hours, basal lipolysis = 100%
Description: 3T3-L1-cells (mouse embryonic fibroblast-like preadipocytes cell line) were propagated in Dulbecco's Modified Eagle Medium (DMEM), enriched with 10% newborn calf serum (CS) at 37° C. and 5% CO2 and seeded in 48-well plates for lipolysis. After reaching confluence at day −2 the differentiation was induced by changing medium at day 0 to DMEM with 10% fetal calf serum (FCS) containing a hormone mix (HM) of 1 μg/ml insulin, 0.25 μM dexamethasone (Dex) and 0.5 mM 3-isobutyl-1-methylxanthine (IBMX). Medium is renewed every other day. At day 2, medium consisting of DMEM, 10% FCS and 1 μg/ml insulin is added. From day 4 on, only DMEM containing 10% FCS is used for further cultivation of cells. For determination of lipolysis, compounds of interest are added at day 10 for 20 hours mixed with bovine serum albumin (BSA). If lipolysis occurs, cells secrete glycerol into the supernatant. Therefore, supernatants are harvested and determination of lipolysis is performed by using a free glycerol reagent. The quantification of the free glycerol is carried out on the basis of an enzymatic method with a free glycerol reagent.
The lipolysis in the presence of the test substances is calculated according to the following equation:
[formula] wherein • A test substance=absorption of the wells with test substance and with cells • A control=absorption of the wells without test substance, but with cells • A control without cells=absorption of the wells without test substance and without cells

Cyclooxygenase-2 (COX-2) = target: T1, Cyclooxygenase-2 (COX-2) (Homo sapiens, UniProt P35354); test: COX-2-Assay (in vitro), fluorometric ADHP/resorufin; assay type: biochemical; details: average of at least 2 independent experiments
T1 sequence (P35354 18-604): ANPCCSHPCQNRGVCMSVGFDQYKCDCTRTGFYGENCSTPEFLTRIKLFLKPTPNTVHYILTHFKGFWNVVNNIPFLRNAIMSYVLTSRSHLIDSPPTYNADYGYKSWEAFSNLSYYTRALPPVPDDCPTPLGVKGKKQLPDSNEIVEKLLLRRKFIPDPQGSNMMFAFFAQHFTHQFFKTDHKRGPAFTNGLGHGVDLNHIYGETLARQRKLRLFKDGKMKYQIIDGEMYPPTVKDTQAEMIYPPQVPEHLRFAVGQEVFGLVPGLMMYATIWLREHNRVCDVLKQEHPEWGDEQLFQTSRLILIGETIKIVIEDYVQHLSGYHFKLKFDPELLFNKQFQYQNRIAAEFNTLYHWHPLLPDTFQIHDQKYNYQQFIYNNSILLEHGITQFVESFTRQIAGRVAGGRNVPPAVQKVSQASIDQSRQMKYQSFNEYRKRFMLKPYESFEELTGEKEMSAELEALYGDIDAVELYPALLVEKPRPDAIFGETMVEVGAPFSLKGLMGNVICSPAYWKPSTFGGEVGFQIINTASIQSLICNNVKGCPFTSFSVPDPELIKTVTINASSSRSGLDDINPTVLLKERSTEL
Description: Cyclooxygenase-2 (COX-2) in the presence of test substance is mixed with the fluorometric substrate 10-acetyl-3,7-dihydroxyphenoxanin (ADHP) and Heme. The reaction is started by addition of the substrate arachidonic acid.
COX-2 converts the arachidonic acid into the prostaglandin endoperoxide G2 (PGG2). PGG2 is reduced to the corresponding alcohol PGH2. During this reaction ADHP results in fluorescent resorufin. Resorufin is quantified at an extinction wavelength of 535 nm and an emission wavelength of 590 nm.
[formula] where • Resorufin test substance=Resorufin concentration of the wells with test substance and with COX-2 • Resorufin control=Resorufin concentration of the wells without test substance, but with COX-2 • Resorufin control without COX-2=Resoruf in concentration of the wells without test substance and without COX-2
From the inhibition of the COX-2[%] in a series of dilutions of tested samples the IC50 is calculated. This is the concentration at which the activity of the COX-2 is inhibited by 50%.

[7] = ABTS-Assay (in vitro), anti-oxidative capacity; details: photometric at 734 nm, average of at least 2 independent experiments
Description: With the help of the ABTS-assay the anti-oxidative capacity of test substances is measured. 2,2′-azino bis-(3-ethylbenzothiazoline 6-sulfonic acid) (ABTS) is transformed by potassium persulfate into the blue-green radical cation ABTS•+. Through the addition of antioxidants (test substance) the radical cations are reduced and discoloration takes place, which is determined photometrically at 734 nm.
[formula] A test substance=absorption of the wells with test substance • A control=absorption of the wells without test substance
From the inhibition of the radical formation [%] in a series of dilutions of tested samples the IC50 is calculated. This is the concentration at which the radical formation is inhibited by 50%.

Structure (SMILES): CCCc1cc(OC)c2c(c1)C(C)C(c1ccc(O)c(OC)c1)O2 (centres unmarked) [compound of formula (I), 2-Methoxy-4-(7-methoxy-3-methyl-5-propyl-2,3-dihydro-benzofuran-2-yl)-phenol]
- Stimulation of adipogenesis ([1]; 0.01 μM): 18
- Stimulation of adipogenesis ([1]; 0.1 μM): 30
- Stimulation of adipogenesis ([1]; 0.25 μM): 35
- Stimulation of adipogenesis ([1]; 0.5 μM): 38
- Stimulation of adipogenesis ([1]; 0.75 μM): 48
- Stimulation of adipogenesis ([1]; 1 μM): 49
- Stimulation of adipogenesis ([1]; 2.5 μM): 48
- Stimulation of adipogenesis ([1]; 5 μM): 37
- Stimulation of adipogenesis ([1]; 10 μM): 22
- Stimulation of expression at day 2, PPARγ2 ([2]; 1 μM): 1.0
- Stimulation of expression at day 2, PPARγ2 ([2]; 10 μM): 1.5
- Stimulation of expression at day 2, Adiponectin (adiponectin; 1 μM): 1.4
- Stimulation of expression at day 2, Adiponectin (adiponectin; 10 μM): 2.2
- Stimulation of expression at day 2, C/EBPα ([3]; 1 μM): 1.1
- Stimulation of expression at day 2, C/EBPα ([3]; 10 μM): 2.2
- Stimulation of expression at day 2, FABP4 ([4]; 1 μM): 2.1
- Stimulation of expression at day 2, FABP4 ([4]; 10 μM): 3.3
- Relative expression at day 2, Pref-1 ([5]; 1 μM): 0.3
- Relative expression at day 2, Pref-1 ([5]; 10 μM): 0.7
- Relative lipolysis compared to basal lipolysis ([6]; 1 μM): 85% ± 1.6
- Relative lipolysis compared to basal lipolysis ([6]; 10 μM): 85% ± 1.5
- IC50 calculated from the inhibition of COX-2 (Cyclooxygenase-2 (COX-2)): 12.3 ppm
- IC50 calculated from the inhibition of radical formation [7]: 11.0 ppm

Structure (SMILES): C[C@H]1CC[C@@]2(OC1)O[C@H]1C[C@H]3[C@@H]4CC[C@@H]5C[C@@H](O)CC[C@]5(C)[C@H]4CC[C@]3(C)[C@H]1[C@@H]2C [sarsasapogenin, reference compound]
- Stimulation of adipogenesis ([1]; 10 μM): 27
- Stimulation of adipogenesis ([1]; 20 μM): 17
- Effect on adipogenesis (in words) ([1]; experiments have shown): stimulating the adipogenesis
- Relative lipolysis compared to basal lipolysis ([6]; 10 μM): 99% ± 3.3
- Relative lipolysis compared to basal lipolysis ([6]; 20 μM): 106% ± 3.5
- Effect on lipolysis in differentiated adipocytes (in words) ([6]; experiments have shown): no effect on the lipolysis
